Experimental data taken from patent US11434242B2, “Dopamine-b-hydroxylase inhibitors” (BIAL-PORTELA & Cª, S.A., priority 2017, dated 2022).
Marks after values point to notes of the source that are not given here.

Target: T1, Dopamine beta hydroxylase (Homo sapiens, UniProt P09172)
T1 construct: 125 μl of plasma; tissue Instituto Português do Sangue Transplantação; host or cells: human plasma from healthy donors
T1 sequence (P09172 40-617 limits assumed): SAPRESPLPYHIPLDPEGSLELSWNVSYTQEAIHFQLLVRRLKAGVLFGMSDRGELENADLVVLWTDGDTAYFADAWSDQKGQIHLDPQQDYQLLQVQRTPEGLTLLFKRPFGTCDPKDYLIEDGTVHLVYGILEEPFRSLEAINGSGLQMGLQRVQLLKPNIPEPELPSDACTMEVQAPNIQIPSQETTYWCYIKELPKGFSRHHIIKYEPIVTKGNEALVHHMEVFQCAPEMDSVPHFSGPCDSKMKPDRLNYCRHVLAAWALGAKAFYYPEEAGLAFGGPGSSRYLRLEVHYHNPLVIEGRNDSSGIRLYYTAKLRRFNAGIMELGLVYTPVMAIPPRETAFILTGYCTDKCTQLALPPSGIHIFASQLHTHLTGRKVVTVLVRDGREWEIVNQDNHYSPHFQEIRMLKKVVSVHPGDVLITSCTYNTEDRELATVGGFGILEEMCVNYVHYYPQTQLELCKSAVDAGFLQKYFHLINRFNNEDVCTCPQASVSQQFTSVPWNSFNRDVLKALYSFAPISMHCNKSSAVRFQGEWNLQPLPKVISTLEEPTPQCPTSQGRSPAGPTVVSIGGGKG
Test: Dopamine beta hydroxylase activity in human plasma
Assay type: biochemical
Settings: for Plasma (0.01 μM), activity in % of control / Plasma (0.01 μM), activity in % of control, re-test (asterisked): inhibitor 0.01 μM; for Plasma (0.1 μM), activity in % of control / Plasma (0.1 μM), activity in % of control, re-test (asterisked): inhibitor 0.1 μM; for Plasma (1 μM), activity in % of control: inhibitor 1 μM; for Plasma (0.01 μM), activity in % of control, re-test (asterisked) / Plasma (0.1 μM), activity in % of control, re-test (asterisked): re-tested under the same experimental conditions, asterisked data believed to be correct
Outline: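 Octopamine production from tyramine over 45 min at 37° C, measured photometrically at 330 nm after SCX extraction and periodate oxidation against an octopamine standard curve, indicates plasma DβH activity. Compounds tested at final 10, 100 and 1000 nM in human plasma, pH 5.0 cofactor buffer, 10 min preincubation; results as % of control.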

Row | SMILES | Plasma (0.01 μM), activity in % of control | Plasma (0.1 μM), activity in % of control | Plasma (1 μM), activity in % of control | Plasma (0.01 μM), activity in % of control, re-test (asterisked) | Plasma (0.1 μM), activity in % of control, re-test (asterisked)
1 | CCOC(=O)CNC(=O)Cc1[nH]c(=S)n2c1C[C@H](c1c(F)c(F)cc(F)c1F)C2 [Example 25, Ethyl (R)-(2-(6-(2,3,5,6-tetrafluorophenyl)-3-thioxo-2,5,6,7-tetrahydro-3H-pyrrolo[1,2-c]imidazol-1-yl)acetyl)glycinate] |  | 71.3 % of control | 17.6 % of control |  | 
2 | CN(CCO)Cc1[nH]c(=S)n2c1C[C@H](c1c(F)c(F)cc(F)c1F)C2.Cl [Example 211, (R)-1-(((2-hydroxyethyl)(methyl)amino)methyl)-6-(2,3,5,6-tetrafluorophenyl)-2,5,6,7-tetrahydro-3H-pyrrolo[1,2-c]imidazole-3-thione hydrochloride] | 104.9 % of control | 94.8 % of control |  |  | 
3 | Cn1c(CC(=O)N2CCC[C@@H]2C(F)(F)F)c2n(c1=S)C[C@@H](c1c(F)ccc(F)c1F)C2 [Example 344, 2-((R)-2-methyl-3-thioxo-6-(2,3,6-trifluorophenyl)-2,5,6,7-tetrahydro-3H-pyrrolo[1,2-c]imidazol-1-yl)-1-((R)-2-(trifluoromethyl)pyrrolidin-1-yl)ethan-1-one] | 88.2 % of control | 73.7 % of control |  |  | 
4 | Cn1c(CC(=O)N2CCNC(=O)C2)c2n(c1=S)C[C@@H](c1c(F)c(F)cc(F)c1F)C2 [Example 323, (R)-4-(2-(2-methyl-6-(2,3,5,6-tetrafluorophenyl)-3-thioxo-2,5,6,7-tetrahydro-3H-pyrrolo[1,2-c]imidazol-1-yl)acetyl)piperazin-2-one] | 86.3 % of control | 43.3 % of control |  |  | 
5 | Cn1c(CC(=O)Nc2ncco2)c2n(c1=S)C[C@@H](c1c(F)c(F)cc(F)c1F)C2 [Example 316, (R)-2-(2-methyl-3-thioxo-6-(2,3,5,6-tetrafluorophenyl)-2,5,6,7-tetrahydro-3H-pyrrolo[1,2-c]imidazol-1-yl)-N-(oxazol-2-yl)acetamide] | 43.4 % of control | 4.5 % of control |  | 73.1* % of control | 16.6* % of control
6 | Cn1c(CC(=O)NC2CCCC2)c2n(c1=S)C[C@@H](c1cc(Cl)ccc1F)C2 [Example 245, (R)-2-(6-(5-chloro-2-fluorophenyl)-2-methyl-3-thioxo-2,5,6,7-tetrahydro-3H-pyrrolo[1,2-c]imidazol-1-yl)-N-cyclopentylacetamide] | 107.8 % of control | 93 % of control |  |  | 
7 | O=C(CCc1[nH]c(=S)n2c1C[C@H](c1c(F)c(F)cc(F)c1F)C2)N1CCC(F)(F)CC1 [Example 206, (R)-1-(4,4-difluoropiperidin-1-yl)-3-(6-(2,3,5,6-tetrafluorophenyl)-3-thioxo-2,5,6,7-tetrahydro-3H-pyrrolo[1,2-c]imidazol-1-yl)propan-1-one] | 22.4 % of control | 8.7 % of control |  |  | 

Next, values leading:

Row | Plasma (0.01 μM), activity in % of control | Plasma (0.1 μM), activity in % of control | Plasma (1 μM), activity in % of control | Plasma (0.01 μM), activity in % of control, re-test (asterisked) | Plasma (0.1 μM), activity in % of control, re-test (asterisked) | SMILES
8 | 66.9 % of control | 10.8 % of control |  |  |  | CN(C(=O)Cc1[nH]c(=S)n2c1[C@@H]1C[C@]1(c1c(F)ccc(Cl)c1F)C2)C1CCOC1 (stereo partly drawn) [Example 396, 2-((5aS,6aR)-5a-(3-chloro-2,6-difluorophenyl)-3-thioxo-2,3,5,5a,6,6a-hexahydrocyclopropa[3,4]pyrrolo[1,2-c]imidazol-1-yl)-N-methyl-N-(tetrahydrofuran-3-yl)acetamide]
9 | 64.0 % of control | 7.5 % of control |  |  |  | CN(C(=O)Cc1c2n(c(=S)n1C)C[C@@]1(c3cc(Br)ccc3F)C[C@@H]21)C1COC1 [Example 438, 2-((5aS,6aR)-5a-(5-bromo-2-fluorophenyl)-2-methyl-3-thioxo-2,3,5,5a,6,6a-hexahydrocyclopropa[3,4]pyrrolo[1,2-c]imidazol-1-yl)-N-methyl-N-(oxetan-3-yl)acetamide]
10 |  | 79.0 % of control | 32.2 % of control |  |  | O=C(O)Cc1[nH]c(=S)n2c1C[C@H](c1cc(Cl)ccc1F)C2 [Example 17, (R)-2-(6-(5-chloro-2-fluorophenyl)-3-thioxo-2,5,6,7-tetrahydro-3H-pyrrolo[1,2-c]imidazol-1-yl)acetic Acid]
11 | 52.5 % of control | 3.0 % of control |  |  |  | O=C(Cc1[nH]c(=S)n2c1[C@@H]1C[C@]1(c1c(F)ccc(Cl)c1F)C2)N1CCC(F)(F)CC1 [Example 149, 2-((5aS,6aR)-5a-(3-chloro-2,6-difluorophenyl)-3-thioxo-2,3,5,5a,6,6a-hexahydrocyclopropa[3,4]pyrrolo[1,2-c]imidazol-1-yl)-1-(4,4-difluoropiperidin-1-yl)ethan-1-one]
12 | 49.6 % of control | 6.5 % of control |  |  |  | CN(C(=O)Cc1c2n(c(=S)n1C)C[C@@]1(c3cc(Br)ccc3F)C[C@@H]21)[C@@H]1CCOC1 [Example 466, 2-((5aS,6aR)-5a-(5-bromo-2-fluorophenyl)-2-methyl-3-thioxo-2,3,5,5a,6,6a-hexahydrocyclopropa[3,4]pyrrolo[1,2-c]imidazol-1-yl)-N-methyl-N—((R)-tetrahydrofuran-3-yl)acetamide]
13 | 74.3 % of control | 34.2 % of control |  |  |  | Cl.Fc1ccc(Cl)c(F)c1[C@@H]1Cc2c(CCc3cccnc3)[nH]c(=S)n2C1 [Example 215, (S)-6-(3-chloro-2,6-difluorophenyl)-1-(2-(pyridin-3-yl)ethyl)-2,5,6,7-tetrahydro-3H-pyrrolo[1,2-c]imidazole-3-thione Hydrochloride]
14 | 59.6 % of control | 20.9 % of control |  |  |  | O=C(Cc1[nH]c(=S)n2c1C[C@@H](c1c(F)ccc(Br)c1F)C2)N[C@@H]1CCCOC1 [Example 402, 2-((S)-6-(3-bromo-2,6-difluorophenyl)-3-thioxo-2,5,6,7-tetrahydro-3H-pyrrolo[1,2-c]imidazol-1-yl)-N—((R)-tetrahydro-2H-pyran-3-yl)acetamide]
15 | 90.1 % of control | 24.9 % of control |  |  |  | CN(C)C(=O)C1CCN(C(=O)Cc2c3n(c(=S)n2C)C[C@@H](c2c(F)ccc(F)c2F)C3)C1 (stereo partly drawn) [Example 358, N,N-dimethyl-1-(2-((R)-2-methyl-3-thioxo-6-(2,3,6-trifluorophenyl)-2,5,6,7-tetrahydro-3H-pyrrolo[1,2-c]imidazol-1-yl)acetyl)pyrrolidine-3-carboxamide]
16 | 38.0 % of control | 4.4 % of control |  | 87.3* % of control | 37.6* % of control | Cn1c(CC(=O)N[C@@H]2CCOC2)c2n(c1=S)C[C@@H](c1c(F)c(F)cc(F)c1F)C2 [Example 243]
